Results from patent publication US20150290240A1 (Fred Hulchinson Cancer Research Center, priority 2012, published 2015).

Tests used:
cardiac troponin I = test: Plasma cardiac troponin I by ELISA after LAD ligation and 2 hour reperfusion; type: in vivo, mice; conditions: end of 2 hour reperfusion
Description: (§1) For the myocardial infarction model, open chest ligation of the left descending coronary artery (LAD ligation) was performed in mice. At 55 minutes post initiation of ischemia, either vehicle or test agent was injected into the femoral vein of each mouse. The heart muscle was reperfused by releasing the ligature at 60 minutes post initiation of ischemia. Mice were then sacrificed at either 2 hours or 2 days post reperfusion for infarct size measurement and blood analysis or heart function assays, respectively, as described below.
To provide an independent means of testing for improvement, the level of a heart specific protein, cardiac troponin I, was assessed in the blood of the animals after the 2 hour reperfusion period. Five minutes prior to reperfusion, three groups of mice were given 200 μg/kg NaHSe, 50 μg/kg NaHSe, or saline by I.V. injection through the femoral vein. At the end of the 2 hour reperfusion, blood was collected and plasma cardiac troponin I was measured by ELISA.

[1] = tested on: mouse model of heart attack (heart function); test: Echocardiography 2 days post the heart attack procedure; type: in vivo, mice; conditions: 800 μg/kg; 48 hours of reperfusion after 60 min LAD ligation; vs saline
Description: as §1
To further test the hypothesis that NaHSe improves outcome following myocardial infarction, mice were survived for 2 days post the heart attack procedure and then subjected to echocardiography.

[2] = tested on: glutathione peroxidase 2 (GPX-2); test: Antibody staining of heart sections for glutathione peroxidase 2; type: in vivo, mice; conditions: 800 μg/kg; compared to saline and sham (no heart attack) animals
Description: as §1
Therefore, the hypothesis that the therapeutic value of sodium selenide is its accumulation in cardiomycytes during reperfusion for the synthesis of selenoproteins, such as glutathione peroxidase, was tested. Heart sections from animals that were saline treated or NaHSe (800 μg/kg) treated were stained with an antibody specific for the selenoprotein glutathione peroxidase 2 (GPX-2).

[3] = tested on: neutrophils in the myocardium; test: Neutrophil count in heart sections following the heart attack procedure; type: in vivo, mice; conditions: vs saline treated animals
Description: as §1
In order to determine whether NaHSe decreased inflammation in the hearts of animals following the heart attack procedure, neutrophils were counted in sections of hearts of saline and NaHSe treated animals.

[4] = Oxidation of selenide solutions in water or glutathione, observed visually; type: physicochemical; conditions: 50 mM selenide in 150 mM GSH vs in water; 8 minutes immediately following preparation
[5] = tested on: mouse model of heart attack (myocardial ischemia and reperfusion); test: Infarct size by morphometry (TTC and Evans blue) after LAD ligation and 2 hours of reperfusion; type: in vivo, mice
Description: as §1
In order to examine the effect of NaHSe on myocardial infarct size, mice were subjected to LAD ligation, and after 2 hours of reperfusion, infarct size was measured by morphometry (FIG. 1). Six groups of mice were utilized in this study, including a saline vehicle group and five test groups that received 50, 200, 800, 1600 and 2400 μg/kg of NaHSe. To be certain that all animals in the study were treated in a similar way, the area at risk (AAR) as a proportion of the left ventricle was determined (FIG. 1, left panel).
Area at risk and infarct size (Inf) were measured using the specific dyes TTC and Evans blue. Processed images were generated in an unbiased way by setting constant thresholds and allowing Photoshop® to generate the images that were quantitated to generate FIG. 1.

Question: What does the source list for `[SeH2]` [NaHSe]?
Answer: plasma cardiac troponin I compared to saline control (cardiac troponin I; 50 μg/kg I.V. 5 min prior to reperfusion): statistically significant decrease; plasma cardiac troponin I compared to saline control (cardiac troponin I; 200 μg/kg I.V. 5 min prior to reperfusion): statistically significant decrease; fractional shortening [1]: statistically significant improvement; left ventricular ejection fraction [1]: statistically significant improvement; GPX-2 antibody staining of heart sections [2]: striking increase; accumulation of neutrophils in the myocardium [3]: significantly reduced; oxidation of selenide (dark oxidized forms in solution) [4]: reduced levels of oxidation; benefit relative to infarct size vs saline ([5]; 800 μg/kg (0.8 mg/kg) at reperfusion, selenide vs selenite comparison (FIG. 6)): provided benefit; reduction in infarct size in comparison to vehicle alone ([5]; 800 μg/kg I.V. femoral vein 5 min prior to reperfusion, 60 min LAD ligation, 2 hours reperfusion): 88%; infarct size vs saline group ([5]; 50, 200, 800, 1600 and 2400 μg/kg I.V. 5 min prior to reperfusion, 2 hours reperfusion): statistically significant dose dependent decreases
